Test results published in patent US20240116921A1, “LACTAM (HETERO)[…] DERIVATIVES AS INHIBITORS OF ERBB2” (EnLiven Therapeutics, Inc., priority 2020, published 2024).
Structures can show the parent of a compound that is named as a salt.

Assays:
[1] = target: T1, phosphorylated ERBB2 (pERBB2) (Homo sapiens, UniProt P04626); experiment: Detection of phosphorylated ERBB2 (pERBB2) by ELISA in BT-474 cells; type: cell-based; settings: four hours incubation
T1 construct: endogenous in cells; host or cells: BT-474
Method in brief: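 BT-474 cells (2.0×10^4/well) treated 4 h at 37 °C, 5% CO2 with compounds in four-fold dilutions from 10 µM to 0.01 nM. Lysate pERBB2 measured by ELISA with TMB read at 450 nm; % relative activity scaled between no-cell wells and 0.1% DMSO-treated cells.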

[2] = target: T2, phosphorylated EGFR (pEGFR) (Homo sapiens, UniProt P00533); experiment: Detection of phosphorylated EGFR (pEGFR) in EGF-stimulated A431 cells; type: cell-based; settings: A431 cells (10% FBS), 4 hours incubation, EGF 30 ng/mL 10 minutes, AlphaLISA
T2 construct: performed to measure phosphorylated EGFR levels using A431 cells (10% FBS); endogenous in cells; host or cells: A431
Method in brief: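 A431 cells in 10% FBS were preincubated with compound for 4 h at 37 °C, then stimulated with EGF (30 ng/mL final) for 10 min. pEGFR in lysates was read by AlphaLISA. % inhibition was calculated against DMSO and staurosporine-treated controls, and IC50 came from a four-parameter curve fit.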

[3] = target: Ba/F3 ERBB2 A775_G776insYVMA (Homo sapiens, UniProt P04626, DUP772-775, cells depend on it); experiment: Cell viability assay, Ba/F3 ERBB2 A775_G776insYVMA; type: cell-based, mouse; settings: Ba/F3 ERBB2 YVMA cells, cell viability, 72 hours, CellTiter Glo; Table B5; read-out: Ba/F3 ERBB2 YVMA, IC50
Method in brief: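 IL-3-independent Ba/F3 lines stably expressing the human ERBB2 insertion mutants were seeded at 3000 cells/well and exposed to compounds for 72 h at 37 °C, 5% CO2. Viability was read as ATP by CellTiter-Glo luminescence. Curves were fitted by sigmoidal nonlinear regression.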

T2 sequence (P00533 25-1210): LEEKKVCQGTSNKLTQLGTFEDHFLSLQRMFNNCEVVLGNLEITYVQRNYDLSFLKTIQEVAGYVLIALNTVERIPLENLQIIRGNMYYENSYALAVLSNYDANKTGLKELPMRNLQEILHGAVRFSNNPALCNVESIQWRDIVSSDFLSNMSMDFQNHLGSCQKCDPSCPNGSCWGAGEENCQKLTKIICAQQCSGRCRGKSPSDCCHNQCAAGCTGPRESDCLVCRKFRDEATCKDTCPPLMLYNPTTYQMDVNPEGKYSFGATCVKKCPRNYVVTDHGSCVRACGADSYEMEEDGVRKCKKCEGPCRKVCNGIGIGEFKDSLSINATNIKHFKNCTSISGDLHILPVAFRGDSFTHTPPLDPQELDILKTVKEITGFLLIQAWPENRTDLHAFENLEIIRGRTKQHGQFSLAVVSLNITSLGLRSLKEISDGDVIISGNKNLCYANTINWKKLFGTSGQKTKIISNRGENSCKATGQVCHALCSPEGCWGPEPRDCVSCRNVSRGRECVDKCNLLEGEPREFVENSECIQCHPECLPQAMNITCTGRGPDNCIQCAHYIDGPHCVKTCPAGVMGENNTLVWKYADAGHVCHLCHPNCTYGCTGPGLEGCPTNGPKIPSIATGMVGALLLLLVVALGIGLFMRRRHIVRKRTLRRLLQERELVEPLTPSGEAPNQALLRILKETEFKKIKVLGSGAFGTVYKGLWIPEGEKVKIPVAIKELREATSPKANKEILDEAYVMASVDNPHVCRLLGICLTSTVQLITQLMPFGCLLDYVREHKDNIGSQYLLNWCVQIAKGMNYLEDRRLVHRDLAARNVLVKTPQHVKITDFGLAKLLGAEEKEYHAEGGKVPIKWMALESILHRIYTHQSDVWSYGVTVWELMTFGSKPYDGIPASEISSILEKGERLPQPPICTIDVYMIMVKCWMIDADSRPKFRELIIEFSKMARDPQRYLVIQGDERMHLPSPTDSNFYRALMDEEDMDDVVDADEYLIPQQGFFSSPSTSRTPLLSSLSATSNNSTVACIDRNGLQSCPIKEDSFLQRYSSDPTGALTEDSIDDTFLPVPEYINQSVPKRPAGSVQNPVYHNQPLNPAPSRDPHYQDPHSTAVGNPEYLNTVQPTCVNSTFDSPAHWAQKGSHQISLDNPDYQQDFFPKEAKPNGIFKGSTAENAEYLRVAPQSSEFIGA
Sequence of Ba/F3 ERBB2 A775_G776insYVMA (P04626 with tags, fused parts or gaps DUP772-775): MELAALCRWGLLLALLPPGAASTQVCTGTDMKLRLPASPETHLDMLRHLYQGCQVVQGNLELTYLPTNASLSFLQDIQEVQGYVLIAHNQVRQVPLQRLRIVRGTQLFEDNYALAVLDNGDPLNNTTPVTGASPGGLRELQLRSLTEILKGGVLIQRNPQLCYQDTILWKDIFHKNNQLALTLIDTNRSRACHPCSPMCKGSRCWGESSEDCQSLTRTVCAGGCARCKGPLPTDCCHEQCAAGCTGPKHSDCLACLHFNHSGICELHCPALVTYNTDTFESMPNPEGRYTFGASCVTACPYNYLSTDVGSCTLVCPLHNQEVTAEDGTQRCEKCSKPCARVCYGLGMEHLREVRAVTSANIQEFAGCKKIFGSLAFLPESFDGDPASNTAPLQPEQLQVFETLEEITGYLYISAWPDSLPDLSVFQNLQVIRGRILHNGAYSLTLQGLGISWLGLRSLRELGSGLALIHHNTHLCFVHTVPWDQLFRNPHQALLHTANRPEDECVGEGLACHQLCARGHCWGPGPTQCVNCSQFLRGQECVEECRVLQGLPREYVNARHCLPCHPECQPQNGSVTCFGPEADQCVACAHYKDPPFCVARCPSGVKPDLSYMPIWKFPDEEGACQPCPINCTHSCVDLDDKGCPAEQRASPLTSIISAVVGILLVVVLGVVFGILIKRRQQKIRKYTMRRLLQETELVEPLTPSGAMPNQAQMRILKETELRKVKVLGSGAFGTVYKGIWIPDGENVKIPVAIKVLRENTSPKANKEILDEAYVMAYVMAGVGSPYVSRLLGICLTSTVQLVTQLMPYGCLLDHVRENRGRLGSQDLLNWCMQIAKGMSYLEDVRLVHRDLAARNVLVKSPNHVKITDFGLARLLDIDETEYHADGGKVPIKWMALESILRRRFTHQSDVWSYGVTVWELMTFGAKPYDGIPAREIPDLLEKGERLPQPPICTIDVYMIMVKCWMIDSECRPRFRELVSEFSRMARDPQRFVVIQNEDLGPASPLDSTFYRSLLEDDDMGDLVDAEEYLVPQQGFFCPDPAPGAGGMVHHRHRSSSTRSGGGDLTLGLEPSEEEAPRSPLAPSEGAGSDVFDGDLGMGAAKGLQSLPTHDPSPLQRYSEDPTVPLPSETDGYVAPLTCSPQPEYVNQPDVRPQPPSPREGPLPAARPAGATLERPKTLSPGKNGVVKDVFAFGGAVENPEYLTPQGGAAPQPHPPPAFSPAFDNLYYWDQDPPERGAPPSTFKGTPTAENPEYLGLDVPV
T1 sequence (P04626 23-1255): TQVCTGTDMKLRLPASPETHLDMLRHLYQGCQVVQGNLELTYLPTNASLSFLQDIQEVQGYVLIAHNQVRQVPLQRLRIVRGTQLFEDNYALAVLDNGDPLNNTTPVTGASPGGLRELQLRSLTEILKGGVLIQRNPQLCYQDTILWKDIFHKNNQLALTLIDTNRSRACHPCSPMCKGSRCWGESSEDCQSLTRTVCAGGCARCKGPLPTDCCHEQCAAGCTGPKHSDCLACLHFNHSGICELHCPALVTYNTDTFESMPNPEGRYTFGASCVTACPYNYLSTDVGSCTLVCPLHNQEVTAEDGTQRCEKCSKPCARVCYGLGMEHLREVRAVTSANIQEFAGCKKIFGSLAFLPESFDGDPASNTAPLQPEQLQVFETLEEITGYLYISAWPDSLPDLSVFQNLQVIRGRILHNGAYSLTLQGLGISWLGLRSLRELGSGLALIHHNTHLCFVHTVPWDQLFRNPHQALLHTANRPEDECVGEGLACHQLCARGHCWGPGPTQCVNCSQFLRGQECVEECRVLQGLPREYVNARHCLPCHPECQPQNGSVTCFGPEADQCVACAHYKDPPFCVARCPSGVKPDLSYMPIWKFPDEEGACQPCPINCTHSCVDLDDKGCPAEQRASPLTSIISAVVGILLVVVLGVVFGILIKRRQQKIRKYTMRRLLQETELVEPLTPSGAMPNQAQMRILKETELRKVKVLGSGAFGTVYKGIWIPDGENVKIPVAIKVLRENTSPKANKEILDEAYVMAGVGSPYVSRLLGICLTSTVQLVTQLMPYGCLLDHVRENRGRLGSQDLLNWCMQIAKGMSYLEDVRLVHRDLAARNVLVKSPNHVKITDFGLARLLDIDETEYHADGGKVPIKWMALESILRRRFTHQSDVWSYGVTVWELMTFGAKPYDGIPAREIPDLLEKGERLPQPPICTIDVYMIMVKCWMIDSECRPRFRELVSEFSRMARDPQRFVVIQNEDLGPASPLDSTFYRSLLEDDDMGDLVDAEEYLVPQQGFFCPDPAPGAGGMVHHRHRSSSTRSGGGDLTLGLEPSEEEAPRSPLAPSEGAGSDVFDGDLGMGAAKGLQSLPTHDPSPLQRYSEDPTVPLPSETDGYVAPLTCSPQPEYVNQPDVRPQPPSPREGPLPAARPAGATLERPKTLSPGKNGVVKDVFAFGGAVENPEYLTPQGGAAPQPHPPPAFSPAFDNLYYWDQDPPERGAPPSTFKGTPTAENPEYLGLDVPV

IC50 [1] [nM] | IC50 [2] [nM] | Structure (SMILES) | GI50 [3] [nM]
11.5 | 574 | Cc1cc(Nc2ncnc3cnc(N4CC(C)/C(=C\CN(C)C)C4=O)cc23)ccc1Oc1ccc2c(c1)nnn2C (single isomer, unassigned) [Example S86, Enantiomer #1, (3E)-3-[2-(dimethylamino)ethylidene]-4-methyl-1-[4-({3-methyl-4-[(1-methyl-1,2,3-benzotriazol-5-yl)oxy]phenyl}amino)pyrido[3,4-d]pyrimidin-6-yl]pyrrolidin-2-one] | 2.59
57.7 | 157 | CNC/C=C1\CCN(c2ccc3ncnc(Nc4ccc(Oc5ccc6c(c5)ncn6C)c(C)c4)c3n2)C1=O [Compound 100, (3E)-1-[4-({3-methyl-4-[(1-methyl-1,3-benzodiazol-5-yl)oxy]phenyl}amino)pyrido[3,2-d]pyrimidin-6-yl]-3-[2-(methylamino)ethylidene]pyrrolidin-2-one; formic acid] | 3.19
7.77 | 355 | C=C1CCN(c2cc3c(Nc4ccc(Oc5ccn6ncnc6c5)c(C)c4)ncnc3cn2)C1=O [Compound 28, 1-(4-((4-([1,2,4]triazolo[1,5-a]pyridin-7-yloxy)-3-methylphenyl)amino)pyrido[3,4-d]pyrimidin-6-yl)-3-methylenepyrrolidin-2-one] | 5.32
20.4 | 697 | Cc1ccc(Oc2ccc(Nc3ncnc4cnc(N5CC/C(=C\CN(C)C)C5=O)cc34)cc2C)cn1 [Compound 75, (3E)-3-[2-(dimethylamino)ethylidene]-1-[4-({3-methyl-4-[(6-methylpyridin-3-yl)oxy]phenyl}amino)pyrido[3,4-d]pyrimidin-6-yl]pyrrolidin-2-one] | 10.4
19.1 | 6680 | Cc1cc(Nc2ncnc3ccc(N4C(=O)C(=CCN(C)C)C5CC54)nc23)ccc1Oc1ccn2ncnc2c1 (single isomer, unassigned) [Example S108, Enantiomer #1, 4-[2-(dimethylamino)ethylidene]-2-{4-[(3-methyl-4-{[1,2,4]triazolo[1,5-a]pyridin-7-yloxy}phenyl)amino]pyrido[3,2-d]pyrimidin-6-yl}-2-azabicyclo[3.1.0]hexan-3-one] | 54
16.8 | > 10000 | Cc1cc(Nc2ncnc3cnc(N4CC/C(=C\C5CN(C)C5)C4=O)cc23)c(F)cc1Oc1ccn2ncnc2c1 [Compound 138, (3E)-1-{4-[(2-fluoro-5-methyl-4-{[1,2,4]triazolo[1,5-a]pyridin-7-yloxy}phenyl)amino]pyrido[3,4-d]pyrimidin-6-yl}-3-[(1-methylazetidin-3-yl)methylidene]pyrrolidin-2-one] | 99.6
16.8 | 1570 | Cc1c(Oc2ccn3ncnc3c2)ccc(Nc2ncnc3ccc(N4CC/C(=C\CN(C)C)C4=O)nc23)c1F [Compound 78, (3E)-3-[2-(dimethylamino)ethylidene]-1-{4-[(2-fluoro-3-methyl-4-{[1,2,4]triazolo[1,5-a]pyridin-7-yloxy}phenyl)amino]pyrido[3,2-d]pyrimidin-6-yl}pyrrolidin-2-one hydrochloride] | 9.92
34.4 | 1990 | Cc1cc(Nc2ncnc3ccc(N4CC/C(=C\CN(C)C)C4=O)nc23)c(F)cc1Oc1ccc2c(c1)ncn2C [Compound 70, (3E)-3-[2-(dimethylamino)ethylidene]-1-[4-({2-fluoro-5-methyl-4-[(1-methyl-1,3-benzodiazol-5-yl)oxy]phenyl}amino)pyrido[3,2-d]pyrimidin-6-yl]pyrrolidin-2-one] | 4.29
589 | > 10000 | CC1CN(c2cc3c(Nc4ccc(Oc5ccc6c(c5)nnn6C)c(F)c4)ncnc3cn2)C(=O)/C1=C/CN(C)C (single isomer, unassigned) [Example S117, Enantiomer #2, (E)-3-(2-(dimethylamino)ethylidene)-1-(4-((3-fluoro-4-((1-methyl-1H-benzo[d][1,2,3]triazol-5-yl)oxy)phenyl)amino)pyrido[3,4-d]pyrimidin-6-yl)-4-methylpyrrolidin-2-one] | > 500
